The test deals with T1, recombinant human Syk (GST-hSyk fusion protein) (Homo sapiens, UniProt P43405).
T1 construct: purchased Carna Biosciences 08-176
The experiment in a line: Homogeneous Time-Resolved Fluorescence (HTRF) assay for the recombinant human Syk enzyme. Format: biochemical. Particulars: 10-dose titration, 25 μM ATP. The gist of the method: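 IC50 came from a four-parameter fit over ten doses, 10 μM to 0.508 nM, with HTRF read-out (Eu-anti-pTyr antibody, SA-APC, EDTA stop, 30 min). The enzyme, 5 pM GST-hSyk, met compound for 10 min, then phosphorylated 250 nM biotin-peptide with 25 μM ATP and 5 mM Mg for 45 min at room temperature, pH 7.5.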

The mark [1] stands for this setting: IC50 class, read-out: rhSYK Activity.

SMILES strings stand for the structures. Like-named read-outs stand apart in the source and are kept apart here.

Regarding `Cc1cc(Nc2nccc(C(F)F)n2)cc(-c2cnn(CC(C)(O)CO)c2)c1` (single isomer, unassigned) [Example 25.3, 3-[4-(3-{[4-(difluoromethyl)pyrimidin-2-yl]amino}-5-methylphenyl)-1H-pyrazol-1-yl]-2-methylpropane-1,2-diol], the IC50 under setting [1] was at most 100 nM.

On to `Cc1cc(Nc2nccc(C)n2)cc(-c2cnn(CC(C)(O)CO)c2)c1` (single isomer, unassigned) [Example 25.4, 2-methyl-3-(4-{3-methyl-5-[(4-methylpyrimidin-2-yl)amino]phenyl}-1H-pyrazol-1-yl)propane-1,2-diol], for which the IC50 under setting [1] was at most 100 nM.

On to `Cc1cc(Nc2nccc(C(F)F)n2)cc(-c2cnn(CC(C)(O)CO)c2)c1` (single isomer, unassigned) [Example 25.5, 3-[4-(3-{[4-(difluoromethyl)pyrimidin-2-yl]amino}-5-methylphenyl)-1H-pyrazol-1-yl]-2-methylpropane-1,2-diol], for which the IC50 under setting [1] is at most 100 nM.

For the compound `Cc1cc(Nc2nccc([C@@H](C)F)n2)cc(-c2cnn(CC(C)(O)CO)c2)c1` (single isomer, unassigned) [Example 25.6], the IC50 under setting [1] was at most 100 nM.

As to `Cc1cc(Nc2nccc([C@H](C)F)n2)cc(-c2cnn(CC(C)(O)CO)c2)c1` (single isomer, unassigned) [Example 25.7], under setting [1], the IC50 was at most 100 nM.

Regarding `Cc1cc(Nc2nccc([C@@H](C)F)n2)cc(-c2cnn(CC(C)(O)CO)c2)c1` (single isomer, unassigned) [Example 25.8], the IC50 under setting [1] was at most 100 nM.

`Cc1cc(Nc2ncc(F)c(C(F)F)n2)cc(-c2cnn(CC(C)(O)CO)c2)c1` (single isomer, unassigned) [Example 25.9, 3-[4-(3-{[4-(difluoromethyl)-5-fluoropyrimidin-2-yl]amino}-5-methylphenyl)-1H-pyrazol-1-yl]-2-methylpropane-1,2-diol]: the IC50 under setting [1] is at most 100 nM.

On to `Cc1cc(Nc2ncc(F)c(C(F)F)n2)cc(-c2cnn(CC(C)(O)CO)c2)c1` (single isomer, unassigned) [Example 25.10, 3-[4-(3-{[4-(difluoromethyl)-5-fluoropyrimidin-2-yl]amino}-5-methylphenyl)-1H-pyrazol-1-yl]-2-methylpropane-1,2-diol], for which, under setting [1], the IC50 is at most 100 nM.

`Cc1cc(Nc2ncccn2)cc(-c2cnn(C(C)c3ccc(C(N)=O)cc3)c2)c1` (single isomer, unassigned) [Example 28.1, 4-(1-(4-(3-Methyl-5-(pyrimidin-2-ylamino)phenyl)-1H-pyrazol-1-yl)ethyl)benzamide]: the IC50 was 57.5 nM (read-out: rhSYK IC50) and at most 100 nM under setting [1].

With `Cc1cc(Nc2ncccn2)cc(-c2cnn(C(C)c3ccc(C(N)=O)cc3)c2)c1` (single isomer, unassigned) [Example 28.2, 4-(1-(4-(3-methyl-5-(pyrimidin-2-ylamino)phenyl)-1H-pyrazol-1-yl)ethyl)benzamide], the IC50 (read-out: rhSYK IC50) was found to be 7.2 nM and the IC50 under setting [1] was at most 100 nM.

Consider `Cc1cc(Nc2ncccn2)cc(-c2cnn(C3CC(C(N)=O)C3)c2)c1` (single isomer, unassigned) [Example 30.1, 3-(4-(3-Methyl-5-(pyrimidin-2-ylamino)phenyl)-1H-pyrazol-1-yl)cyclobutanecarboxamide], for which the IC50 is, setting by setting: (read-out: rhSYK IC50) 48.3 nM; under setting [1], at most 100 nM.

On to `Cc1cc(Nc2ncccn2)cc(-c2cnn(C3CC(C(N)=O)C3)c2)c1` (single isomer, unassigned) [Example 31.1, 3-(4-(3-Methyl-5-(pyrimidin-2-ylamino)phenyl)-1H-pyrazol-1-yl)cyclobutanecarboxamide], for which the IC50 (read-out: rhSYK IC50) stood at 34.9 nM and the IC50 under setting [1] was at most 100 nM.

Regarding `Cc1cc(Nc2nccc(C(F)F)n2)cc(-c2cnn(CC(O)(CO)C(F)(F)F)c2)c1` (single isomer, unassigned) [Example 32.1, (S or R)-2-((4-(3-((4-(difluoromethyl)pyrimidin-2-yl)amino)-5-methylphenyl)-1H-pyrazol-1-yl)methyl)-3,3,3-trifluoropropane-1,2-diol], the IC50 reads like this: (read-out: rhSYK IC50) 1.6 nM; under setting [1], at most 100 nM.

Values taken from patent US9242984B2, “Pyrazolyl derivatives as Syk inhibitors” (Merck Sharp & Dohme Corp., priority 2012, dated 2016).
